Literature values in patent US20060270013A1 (priority 2003, published 2006).

Biological target: NADPH-dependent benzil reductase (Bacillus cereus, UniProt Q8RJB2)
Settings: substrate of benzil reductase; Maruyama et al. 2002

Sequence of NADPH-dependent benzil reductase (Q8RJB2 whole entry): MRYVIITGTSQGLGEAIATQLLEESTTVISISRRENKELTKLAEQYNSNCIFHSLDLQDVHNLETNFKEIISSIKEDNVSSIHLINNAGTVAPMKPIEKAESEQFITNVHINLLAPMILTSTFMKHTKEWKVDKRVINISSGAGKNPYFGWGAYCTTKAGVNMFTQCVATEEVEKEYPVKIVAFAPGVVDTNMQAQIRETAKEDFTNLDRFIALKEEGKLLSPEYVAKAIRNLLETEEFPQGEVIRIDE

Compound | Km [µM] | kcat [s⁻¹]
O=Cc1ccc([N+](=O)[O-])cc1 [p-nitrobenzaldehyde] | 261 | 0.02
CC(=O)C(=O)c1ccccc1 [1-phenyl-1,2-propanedione] | 42 | 2.75
